Reference: US9932339B2, “Helquats with heteroaromatic substituents, preparation thereof, and use thereof as G-quadruplex stabilizers” (USTAV ORGANICKE CHEMIE A BIOCHEMIE AV CR, V.V.I., priority 2014, dated 2018)
pIC50: −log10 of the molar value. Like-named read-outs stand apart in the source and are kept apart here.

Experiments:
CCRF-CEM = experiment: XTT cytotoxicity/proliferation assay, CCRF-CEM; format: cell-based
Protocol: To assess the antiproliferative effects of the tested substances in vitro, tumor cell line CCRF-CEM derived from acute lymphoblastic leukemia and normal (healthy) HUVEC endothelial cells from umbilical vein were used. Both of these cell lines were cultured under optimal conditions for their growth in the appropriate medium in plastic bottles or plastic Petri dishes of various sizes (TPP, BD Biosciences) at 37° C., 5% CO2 and 95% humidity. HUVEC cells were purchased from BD Biosciences. CCRF-CEM cell line was obtained from ATCC/LGC Standards (American Type Cell Collection).
Suspension cell line CCRF-CEM is a continuous in vitro culture of acute lymphoblastic leukemia. Cell line CCRF-CEM was grown in RPMI 1640 medium (Sigma-Aldrich, cat. No. R8758) supplemented with 2 mmol·l^−1 glutamine (Invitrogen, cat. No. 35050-038), 10% fetal bovine serum (FBS; Sigma-Aldrich, cat. No. F9665), 100 IU/ml penicillin, 100 μg/ml streptomycin (Sigma-Aldrich, cat. No. P0781). Passaging was carried out 2-3 times a week. Population doubling time of CCRF-CEM cells under the used culture conditions is 20 hours.
For testing of the sensitivity of cell lines to studied helquats XTT cytotoxicity/proliferation assay for determination of cell viability was used. This method is based on the ability of metabolically active cells to reduce the yellow tetrazolium salt XTT to orange formazan. The rate of conversion is measured as the increase in absorbance at 492 nm and is proportional to the enzymatic activity of mitochondrial dehydrogenases and thus the number of metabolically active (viable) cells. The output is the IC50 value corresponding to the concentration of the test substance that causes a decrease in the number of viable cells by half (i.e. 50% slowdown of cell division) relative to the control, untreated population. Thus it reflects the effectiveness of the test substance towards the tested cell line.
Cells in exponential growth phase were plated into 96-well microtiter plate at a concentration of 3000 cells per well. Each well contained 90 μl of cell suspension. The following day, 10 μl of 10× concentrated test substances was added. Effect of helquats has been studied in the concentration range 1-100 μmol·l^−1 (or 1, 2.5, 5, 7.5, 10; 15; 25; 50 and 100 μmol·l^−1). In addition to the part of the plate containing the mentioned dilutions of test compounds there were always two control columns present, first column with medium alone (i.e. blank) and the second column with the cells in medium without test compounds (control). Into the blank and control wells the same volume of solvent (water) as the volume of the substances was added. After 72 hours of treatment with substances the measurement of viability was performed according to the manufacturer instructions. Briefly, into each well of a 96-well microtiter plate 50 μl of the prepared working solution of XTT (detection reagent) was added and then the microtiter plate was returned to the CO2 incubator. After 2 hours, the absorbance of each well at 492 nm (reference wavelength 690 nm) was measured using a multifunctional microplate reader (Tecan Genios, Austria).
The results of determination of the viability of cancer and normal cells after treatment with different concentrations of test substances are summarized in Table 9. […] Each concentration of a helquat was tested in triplicates within one IC50 value determination. Each of these IC50 value determinations was repeated in at least three independent experiments. Values above 100 μmol·l^−1 were obtained by extrapolation of data measured in the concentration range 0-100 μmol·l^−1 of helquats.

HUVEC = experiment: XTT cytotoxicity/proliferation assay, HUVEC; format: cell-based, human
Protocol: To assess the antiproliferative effects of the tested substances in vitro, tumor cell line CCRF-CEM derived from acute lymphoblastic leukemia and normal (healthy) HUVEC endothelial cells from umbilical vein were used. Both of these cell lines were cultured under optimal conditions for their growth in the appropriate medium in plastic bottles or plastic Petri dishes of various sizes (TPP, BD Biosciences) at 37° C., 5% CO2 and 95% humidity. HUVEC cells were purchased from BD Biosciences. CCRF-CEM cell line was obtained from ATCC/LGC Standards (American Type Cell Collection). Normal human endothelial cells from the umbilical vein are adherent cells, which were grown in plastic Petri dishes coated with collagen I. The culture medium (E-STIMTM; BD Biosciences, cat. […] Then, 5 ml of complete culture media E-STIM™ was added and the cells were centrifuged (180×g, 7 minutes), resuspended and transferred in a desired amount in a new Petri dish with fresh medium. In the experiments cells between passages 3 and 8 (after thawing) were used. Population doubling time of HUVEC cells under the used culture conditions is 38 hours. For testing of the sensitivity of cell lines to studied helquats XTT cytotoxicity/proliferation assay for determination of cell viability was used. This method is based on the ability of metabolically active cells to reduce the yellow tetrazolium salt XTT to orange formazan. The rate of conversion is measured as the increase in absorbance at 492 nm and is proportional to the enzymatic activity of mitochondrial dehydrogenases and thus the number of metabolically active (viable) cells. […] Thus it reflects the effectiveness of the test substance towards the tested cell line. Cells in exponential growth phase were plated into 96-well microtiter plate at a concentration of 3000 cells per well. Each well contained 90 μl of cell suspension. The following day, 10 μl of 10× concentrated test substances was added. […] In addition to the part of the plate containing the mentioned dilutions of test compounds there were always two control columns present, first column with medium alone (i.e. blank) and the second column with the cells in medium without test compounds (control). Into the blank and control wells the same volume of solvent (water) as the volume of the substances was added. After 72 hours of treatment with substances the measurement of viability was performed according to the manufacturer instructions. Briefly, into each well of a 96-well microtiter plate 50 μl of the prepared working solution of XTT (detection reagent) was added and then the microtiter plate was returned to the CO2 incubator. After 2 hours, the absorbance of each well at 492 nm (reference wavelength 690 nm) was measured using a multifunctional microplate reader (Tecan Genios, Austria).

[1] = system: G-quadruplex in promoter region of the c-myc gene (NHE III1 segment); experiment: Dual luciferase analysis with plasmid pGL4.10-myc (luc2) in HGC-27 cells; format: cell-based, human; settings: for inhibition at 50 µM / activity at 50 µM: Homo sapiens; for inhibition at 50 µM: HGC-27, text summary of tab. 5 (50 μmol·l^−1), read-out: inhibition of expression of firefly luciferase as compared to control; for activity at 50 µM: helquat 50 μmol · l^−1, HGC-27, firefly normalized to Renilla, 24 hours after transfection, read-out: luciferase expression relative to control (control = 100%); for Quantification of expression relative to control (%): control = 100%
Description: A dual luciferase analysis was used to determine the degree of stabilization of G-quadruplex in a promoter region of the c-myc gene on cellular level. Stabilization of G-quadruplex is expressed as the ratio of expression of two luciferases (firefly and Renilla) from the co-transfected vectors pGL4.10-myc (luc2) and pRL-TK (Renilla) into a cell line HGC-27 expressing c-myc protein. Expression of the reporter gene (firefly luciferase) from pGL4.10-myc vector is controlled by the c-myc regulatory region of a length of 860 by (in the range from −306 to +554). The inserted sequence contains NHE III1 segment which forms G-quadruplex [Yang, D. et al. (2010) Future Med Chem., 2, 619], and is responsible for as much as 90% of the transcriptional activity of the c-myc gene.
Level of expression of firefly luciferase reporter gene corresponds to promoter activity of c-myc and thus to the degree of stabilization of the G-quadruplex. The signal is normalized to Renilla luciferase expression from pRL-TK vector under the control of a constitutive viral thymidine kinase (HSV-TK) promoter. The amount of Renilla luciferase expression serves as an internal control for normalization of firefly signal on transfection efficiency in the sample. Plasmids pGL4.10-myc (luc2) and pRL-TK were propagated in Escherichia coli (DH5α strain) and purified using the Qiagen Plasmid Mini and Midi kits. Cells were cultured under standard conditions and in exponential growth phase were seeded into a white 96-well microtiter plates. Transfection was carried out using a transfection reagent X-tremeGENE HP DNA in OptiMEM media for two hours. The ratio of reporter and control vector was 1:1 and the ratio of transfection reagent to the total amount of DNA was 1:1. Two hours after transfection helquats were added in a concentration of 50 μmol·l^−1. Quantity of firefly and Renilla luciferases in the samples was determined 24 hours after transfection. Dual luciferase analysis was performed using a commercially available kit (Promega, cat. No. E1960) according to manufacturer's instructions. Luminescence was measured using a luminometer EnSpire Alpha Plate Reader. The data obtained were normalized to the Renilla luciferase signal and then the values were related to control.

[2] = Homo sapiens, CCRF-CEM, 72 hours of treatment, read-out: IC50 CCRF CEM
[3] = Homo sapiens, CCRF-CEM, 72 hours, summary of table 9, read-out: concentrations toxic towards CCRF-CEM cells
[4] = Homo sapiens, HUVEC, 72 hours of treatment, values above 100 μmol·l^−1 obtained by extrapolation, read-out: IC50 HUVEC
[5] = Homo sapiens, HUVEC, 72 hours, summary of table 9, read-out: concentrations non-toxic towards HUVEC cells

Row | Compound | pIC50 (CCRF-CEM; 72 hours of treatment, read-out: IC50 CCRF CEM) | pIC50 (HUVEC; 72 hours of treatment, values above 100 μmol·l^−1 obtained by extrapolation, read-out: IC50 HUVEC) | inhibition at 50 µM [1] [%] | activity at 50 µM [1] [%] | pIC50 (CCRF-CEM; [2]) | pIC50 (CCRF-CEM; [3]) | pIC50 (HUVEC; [4]) | pIC50 (HUVEC; [5]) | Quantification of expression relative to control (%) ([1]; 10 μmol · l^−1) | Quantification of expression relative to control (%) ([1]; 50 μmol · l^−1) | Quantification of expression relative to control (%) ([1]; 150 μmol · l^−1)
1 | 19-((E)-2-(7-methyl-1H-indol-3-yl)vinyl)-6,7,8,11,12,13-hexahydropyrido[1′,2′″:1″,2″]azepino[4″,3″:5′,6′]benzo[1′,2′:3,4]azepino[1,2-a]quinoline-5,14-diium trifluoromethanesulfonate [MSC-C10-31] | 4.60 to 4.96 | ≤ 4.29 | – | – | – | – | – | – | – | – | –
2 | Cn1c(/C=C/c2cc3ccccc3[n+]3c2-c2c(ccc4c2-c2cccc[n+]2CCC4)CCC3)cc2ccccc21 [MSC-C10-10, 19-((E)-2-(1-methyl-1H-indol-2-yl)vinyl)-6,7,8,11,12,13-hexahydropyrido[1′″,2′″:1″,2″]azepino[4″,3″:5′,6′]benzo[1′,2′:3,4]azepino[1,2-a]quinoline-5,14-diium trifluoromethanesulfonate] | – | – | > 10 | 85 | 4.60 to 4.96 | > 4.60 | ≤ 4.00 | < 4.00 | – | – | –
3 | C(=C\c1c[nH]c2c1ccc1ccccc12)/c1cc[n+]2c(c1)-c1c(ccc3c1-c1c4ccccc4cc[n+]1CC3)CC2 [MSB-C13-16, (E)-13-(2-(1H-benzo[g]indol-3-yl)vinyl)-4,5,8,9-tetrahydroisoquinolino[1,2-a]pyrido[1,2-k][2,9]phenanthroline-3,10-diium trifluoromethanesulfonate] | – | – | – | – | 4.60 to 4.96 | – | ≤ 4.29 | – | – | – | –
4 | Cc1c(C)c2c(c3c1CC[n+]1ccc4ccccc4c1-3)-c1cccc(/C=C/c3ccc(-c4ccc(-c5cccs5)s4)s3)[n+]1CC2.O=S(=O)([O-])C(F)(F)F.O=S(=O)([O-])C(F)(F)F [VDJA-C13-6, (E)-11-(2-([2,2′;5′,2″-terthiophen]-5-yl)vinyl)-6,7-dimethyl-4,5,8,9-tetrahydroisoquinolino[1,2-a]pyrido[1,2-k][2,9]phenanthroline-3,10-diium trifluoromethanesulfonate] | – | – | – | 27 | 4.60 to 4.96 | – | ≤ 4.29 | – | 59.0 ± 17.9 | 27.1 ± 0.8 | 15.3 ± 2.9
5 | Cc1c(C)c2c(c3c1CC[n+]1ccc(/C=C/c4ccc5oc6ccccc6c5c4)cc1-3)-c1c3ccccc3cc[n+]1CC2 [MJA-C13-22, (E)-13-(2-(dibenzo[b,d]furan-2-yl)vinyl)-6,7-dimethyl-4,5,8,9-tetrahydroisoquinolino[1,2-a]pyrido[1,2-k][2,9]phenanthroline-3,10-diium trifluoromethanesulfonate] | – | – | – | – | ≥ 5.00 | > 4.60 | ≤ 4.00 | < 4.00 | – | – | –
6 | C(=C\c1c[nH]c2c1ccc1ccccc12)/c1cc2ccccc2[n+]2c1-c1c(ccc3c1-c1cccc[n+]1CCC3)CCC2 [MSC-C13-16, 19-((E)-2-(1H-benzo[g]indol-3-yl)vinyl)-6,7,8,11,12,13-hexahydropyrido[1′″,2′″:1″,2″]azepino[4″,3″:5′,6′]benzo[1′,2′:3,4]azepino[1,2-a]quinoline-5,14-diium trifluoromethanesulfonate] | – | – | > 10 | 85 | ≥ 5.00 | > 4.60 | ≤ 4.00 | < 4.00 | – | – | –
7 | C(=C\c1cc(-c2ccccc2)cs1)/c1cc[n+]2c(c1)-c1c(ccc3c1-c1c4ccccc4cc[n+]1CC3)CC2 [MSB-C11-7, (E)-13-(2-(4-phenylthiophen-2-yl)vinyl)-4,5,8,9-tetrahydroisoquinolino[1,2-a]pyrido[1,2-k][2,9]phenanthroline-3,10-diium trifluoromethanesulfonate] | – | – | – | – | 4.60 to 4.96 | > 4.60 | ≤ 4.00 | < 4.00 | – | – | –
8 | Cc1c(C)c2c(c3c1CC[n+]1ccc4ccccc4c1-3)-c1cccc(/C=C/c3cccc4c3sc3ccccc34)[n+]1CC2 [VDJA-C13-20, (E)-11-(2-(dibenzo[b,d]thiophen-4-yl)vinyl)-6,7-dimethyl-4,5,8,9-tetrahydroisoquinolino[1,2-a]pyrido[1,2-k][2,9]phenanthroline-3,10-diium trifluoromethanesulfonate] | – | – | – | – | 4.60 to 4.96 | > 4.60 | ≤ 4.00 | < 4.00 | – | – | –
